For two compounds, IC50 and Ki results are on record in ChEMBL document CHEMBL1909046, “DrugMatrix in vitro pharmacology data”.

Each structure is given as a SMILES string.

Sequence of Acetylcholinesterase (P22303 whole entry): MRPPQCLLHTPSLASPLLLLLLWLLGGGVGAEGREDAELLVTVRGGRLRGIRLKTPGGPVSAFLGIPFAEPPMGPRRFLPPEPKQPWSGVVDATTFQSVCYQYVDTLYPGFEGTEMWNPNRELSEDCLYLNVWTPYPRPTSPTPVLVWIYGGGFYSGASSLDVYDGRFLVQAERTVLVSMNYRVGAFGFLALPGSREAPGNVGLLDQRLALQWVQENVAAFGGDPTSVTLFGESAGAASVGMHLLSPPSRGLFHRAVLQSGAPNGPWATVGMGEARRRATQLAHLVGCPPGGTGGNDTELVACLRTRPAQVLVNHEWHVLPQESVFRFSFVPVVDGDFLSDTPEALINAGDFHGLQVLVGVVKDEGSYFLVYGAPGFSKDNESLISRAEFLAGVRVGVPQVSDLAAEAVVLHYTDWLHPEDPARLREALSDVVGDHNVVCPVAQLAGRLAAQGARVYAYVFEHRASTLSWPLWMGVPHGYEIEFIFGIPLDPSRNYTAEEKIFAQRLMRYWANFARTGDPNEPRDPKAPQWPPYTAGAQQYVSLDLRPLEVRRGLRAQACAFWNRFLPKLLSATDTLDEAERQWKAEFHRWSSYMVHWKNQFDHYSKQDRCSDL

Tested on in the first experiment: not listed separately
The experiment can be described thus: DRUGMATRIX: Potassium Channel [KATP] radioligand binding (ligand: [3H] Glyburide). Type of experiment: cell membranes, Membrane. As to conditions: hit-t15; Not Active = under 50% inhibition at 10 µM.
In the case of `COc1c(C)c2c(c(O)c1C/C=C(\C)CCC(=O)OCCN1CCOCC1)C(=O)OC2` [MYCOPHENOLATE MOFETIL], the IC50 entry was “Not Active” and the Ki result was “Not Active”.

With `C[C@]12Cc3c[nH]nc3C[C@@H]1CC[C@@H]1[C@@H]2CC[C@@]2(C)[C@H]1CC[C@]2(C)O` [STANOZOLOL], the IC50 entry is reported as “Not Active” and the Ki entry is “Not Active”.

Another experiment addresses T1, Substance-K receptor (Homo sapiens, UniProt P21452).
T1 sequence (P21452 whole entry): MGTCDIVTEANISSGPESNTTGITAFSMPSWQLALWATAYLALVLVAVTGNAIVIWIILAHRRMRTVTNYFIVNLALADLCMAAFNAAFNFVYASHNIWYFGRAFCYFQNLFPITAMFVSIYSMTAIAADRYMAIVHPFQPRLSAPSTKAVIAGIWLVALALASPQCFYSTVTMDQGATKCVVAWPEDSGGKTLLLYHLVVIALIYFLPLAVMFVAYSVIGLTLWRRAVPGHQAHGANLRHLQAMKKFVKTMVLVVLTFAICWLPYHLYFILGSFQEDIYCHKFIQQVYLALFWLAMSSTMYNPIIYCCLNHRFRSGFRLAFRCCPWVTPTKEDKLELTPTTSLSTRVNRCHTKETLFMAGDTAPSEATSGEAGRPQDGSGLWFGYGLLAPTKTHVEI
Type of experiment: cell membranes, CHO, Membrane. The note with it: cho.
In the case of `COc1c(C)c2c(c(O)c1C/C=C(\C)CCC(=O)OCCN1CCOCC1)C(=O)OC2` [MYCOPHENOLATE MOFETIL], the IC50 result is “Not Active”.

`C[C@]12Cc3c[nH]nc3C[C@@H]1CC[C@@H]1[C@@H]2CC[C@@]2(C)[C@H]1CC[C@]2(C)O` [STANOZOLOL]: the IC50 entry is “Not Active”.

The target in a further experiment is Mitogen-activated protein kinase 3 (Homo sapiens, UniProt P27361). The experiment can be described thus: DRUGMATRIX: Protein Serine/Threonine Kinase, ERK1 enzyme inhibition (substrate: Myelin Basic Protein). On the set-up: species or system Escherichia coli. The note with it: Not Active = under 50% inhibition at 10 µM.
Sequence of Mitogen-activated protein kinase 3 (P27361 whole entry): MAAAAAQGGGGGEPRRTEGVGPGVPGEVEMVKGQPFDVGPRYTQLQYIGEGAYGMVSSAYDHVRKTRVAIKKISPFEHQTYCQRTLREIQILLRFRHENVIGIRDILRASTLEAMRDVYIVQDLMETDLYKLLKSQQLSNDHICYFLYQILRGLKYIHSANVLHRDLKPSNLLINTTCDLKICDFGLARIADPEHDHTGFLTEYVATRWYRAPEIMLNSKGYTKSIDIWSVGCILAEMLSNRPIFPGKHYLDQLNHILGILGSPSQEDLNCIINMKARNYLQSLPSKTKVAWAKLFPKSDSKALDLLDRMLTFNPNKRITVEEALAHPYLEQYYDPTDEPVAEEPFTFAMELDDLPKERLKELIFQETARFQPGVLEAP
Consider `COc1c(C)c2c(c(O)c1C/C=C(\C)CCC(=O)OCCN1CCOCC1)C(=O)OC2` [MYCOPHENOLATE MOFETIL], for which the IC50 entry was “Not Active”.

Turning to `C[C@]12Cc3c[nH]nc3C[C@@H]1CC[C@@H]1[C@@H]2CC[C@@]2(C)[C@H]1CC[C@]2(C)O` [STANOZOLOL], the IC50 entry is reported as “Not Active”.

For the next experiment, the target named is cGMP-specific 3',5'-cyclic phosphodiesterase (Homo sapiens, UniProt O76074). The experiment in a line: DRUGMATRIX: Phosphodiesterase PDE5 enzyme inhibition (substrate: [3H]cGMP + cGMP). In kind it is tissue-based, Platelet. As to conditions: platelet; Not Active = under 50% inhibition at 10 µM.
Regarding `COc1c(C)c2c(c(O)c1C/C=C(\C)CCC(=O)OCCN1CCOCC1)C(=O)OC2` [MYCOPHENOLATE MOFETIL], the IC50 result was “Not Active”.

For `C[C@]12Cc3c[nH]nc3C[C@@H]1CC[C@@H]1[C@@H]2CC[C@@]2(C)[C@H]1CC[C@]2(C)O` [STANOZOLOL], the IC50 entry is “Not Active”.

Another experiment concerns the target T2, C-X-C chemokine receptor type 1 (Homo sapiens, UniProt P25024). Note: in other assays of this panel Not Active means under 50% inhibition at 10 µM.
T2 sequence (P25024 whole entry): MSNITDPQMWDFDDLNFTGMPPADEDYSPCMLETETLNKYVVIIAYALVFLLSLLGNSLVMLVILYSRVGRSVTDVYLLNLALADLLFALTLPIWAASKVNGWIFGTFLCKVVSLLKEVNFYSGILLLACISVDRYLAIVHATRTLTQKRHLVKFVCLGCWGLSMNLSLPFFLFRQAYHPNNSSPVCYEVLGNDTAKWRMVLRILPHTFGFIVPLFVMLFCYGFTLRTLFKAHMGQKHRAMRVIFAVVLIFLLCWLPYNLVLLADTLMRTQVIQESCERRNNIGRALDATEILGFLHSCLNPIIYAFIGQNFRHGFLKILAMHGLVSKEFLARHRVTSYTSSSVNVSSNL
Conditions: not given
In the case of `COc1c(C)c2c(c(O)c1C/C=C(\C)CCC(=O)OCCN1CCOCC1)C(=O)OC2` [MYCOPHENOLATE MOFETIL], the IC50 entry is “Not Active”.

Consider `C[C@]12Cc3c[nH]nc3C[C@@H]1CC[C@@H]1[C@@H]2CC[C@@]2(C)[C@H]1CC[C@]2(C)O` [STANOZOLOL], for which the IC50 result is “Not Active”.

In a further experiment the target is T3, Alpha-2C adrenergic receptor (Homo sapiens, UniProt P18825).
T3 sequence (P18825 whole entry): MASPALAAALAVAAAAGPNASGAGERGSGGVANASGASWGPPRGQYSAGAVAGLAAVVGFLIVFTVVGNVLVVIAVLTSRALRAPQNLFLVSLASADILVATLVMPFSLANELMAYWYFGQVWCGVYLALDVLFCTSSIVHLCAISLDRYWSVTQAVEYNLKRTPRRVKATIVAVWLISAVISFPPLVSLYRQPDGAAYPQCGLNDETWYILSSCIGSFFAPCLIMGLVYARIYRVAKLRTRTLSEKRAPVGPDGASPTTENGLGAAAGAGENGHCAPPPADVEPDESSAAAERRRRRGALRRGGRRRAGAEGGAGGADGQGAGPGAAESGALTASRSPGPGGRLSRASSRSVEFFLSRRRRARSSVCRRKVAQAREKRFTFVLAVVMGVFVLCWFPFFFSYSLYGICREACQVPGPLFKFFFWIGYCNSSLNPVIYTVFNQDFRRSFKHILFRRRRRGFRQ
The experiment can be described thus: DRUGMATRIX: Adrenergic Alpha-2C radioligand binding (ligand: [3H] MK-912). Type of experiment: cell membranes, Sf9, Membrane. The note with it: sf9.
Take `COc1c(C)c2c(c(O)c1C/C=C(\C)CCC(=O)OCCN1CCOCC1)C(=O)OC2` [MYCOPHENOLATE MOFETIL]: the IC50 result is “Not Active”.

Turning to `C[C@]12Cc3c[nH]nc3C[C@@H]1CC[C@@H]1[C@@H]2CC[C@@]2(C)[C@H]1CC[C@]2(C)O` [STANOZOLOL], the IC50 entry is on record as “Not Active”.

Tested on in a further experiment: not listed separately
The experiment in a line: DRUGMATRIX: Platelet-Derived Growth Factor (PDGF) radioligand binding (ligand: [125I] PDGF). As to conditions: nih3t3; Not Active = under 50% inhibition at 10 µM. Type of experiment: cell-based.
As to `COc1c(C)c2c(c(O)c1C/C=C(\C)CCC(=O)OCCN1CCOCC1)C(=O)OC2` [MYCOPHENOLATE MOFETIL], the IC50 result is on record as “Not Active” and the Ki entry is “Not Active”.

For the compound `C[C@]12Cc3c[nH]nc3C[C@@H]1CC[C@@H]1[C@@H]2CC[C@@]2(C)[C@H]1CC[C@]2(C)O` [STANOZOLOL], the IC50 entry is “Not Active” and the Ki entry is “Not Active”.

A further experiment concerns the target T4, B2 bradykinin receptor (Homo sapiens, UniProt P30411). Note: in other assays of this panel Not Active means under 50% inhibition at 10 µM.
T4 sequence (P30411 whole entry): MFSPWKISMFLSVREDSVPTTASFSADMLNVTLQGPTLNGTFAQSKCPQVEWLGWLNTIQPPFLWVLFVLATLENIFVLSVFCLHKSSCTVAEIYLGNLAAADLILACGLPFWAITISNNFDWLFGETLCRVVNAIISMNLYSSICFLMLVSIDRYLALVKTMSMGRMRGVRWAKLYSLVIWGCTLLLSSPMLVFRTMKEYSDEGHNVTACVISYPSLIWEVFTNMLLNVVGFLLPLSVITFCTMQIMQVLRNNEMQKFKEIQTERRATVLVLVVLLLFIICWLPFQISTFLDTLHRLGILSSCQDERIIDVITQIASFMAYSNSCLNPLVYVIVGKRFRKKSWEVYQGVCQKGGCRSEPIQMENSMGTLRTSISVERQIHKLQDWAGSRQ
Type of experiment: cell membranes, Membrane. The note with it: chem-1.
As for `COc1c(C)c2c(c(O)c1C/C=C(\C)CCC(=O)OCCN1CCOCC1)C(=O)OC2` [MYCOPHENOLATE MOFETIL], the IC50 entry is “Not Active”.

For `C[C@]12Cc3c[nH]nc3C[C@@H]1CC[C@@H]1[C@@H]2CC[C@@]2(C)[C@H]1CC[C@]2(C)O` [STANOZOLOL], the IC50 result is given as “Not Active”.

The target of a further experiment is Adenosine receptor A2a (Homo sapiens, UniProt P29274). The experiment in a line: DRUGMATRIX: Adenosine A2A radioligand binding (ligand: […]). The note with it: hek293; Not Active = under 50% inhibition at 10 µM. In kind it is cell membranes, HEK293, Membrane.
Sequence of Adenosine receptor A2a (P29274 whole entry): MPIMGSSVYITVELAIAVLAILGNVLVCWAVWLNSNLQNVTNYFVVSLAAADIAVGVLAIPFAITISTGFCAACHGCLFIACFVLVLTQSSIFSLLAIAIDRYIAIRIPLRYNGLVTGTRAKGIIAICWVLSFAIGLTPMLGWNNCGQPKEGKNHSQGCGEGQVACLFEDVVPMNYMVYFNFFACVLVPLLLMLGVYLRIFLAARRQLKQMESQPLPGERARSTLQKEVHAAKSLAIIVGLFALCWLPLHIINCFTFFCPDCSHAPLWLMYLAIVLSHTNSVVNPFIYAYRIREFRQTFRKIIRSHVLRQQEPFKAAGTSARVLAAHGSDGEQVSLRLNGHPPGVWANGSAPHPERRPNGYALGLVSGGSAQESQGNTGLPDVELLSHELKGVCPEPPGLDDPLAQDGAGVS
`COc1c(C)c2c(c(O)c1C/C=C(\C)CCC(=O)OCCN1CCOCC1)C(=O)OC2` [MYCOPHENOLATE MOFETIL]: the IC50 entry is listed as “Not Active”.

On to `C[C@]12Cc3c[nH]nc3C[C@@H]1CC[C@@H]1[C@@H]2CC[C@@]2(C)[C@H]1CC[C@]2(C)O` [STANOZOLOL], for which the IC50 entry was “Not Active”.

Another experiment concerns the target Acetylcholinesterase (Homo sapiens, UniProt P22303). The experiment in a line: DRUGMATRIX: Acetylcholinesterase enzyme inhibition (substrate: acetylthiocholine). Type of experiment: cell-based, HEK293. As to conditions: hek293; Not Active = under 50% inhibition at 10 µM.
On to `COc1c(C)c2c(c(O)c1C/C=C(\C)CCC(=O)OCCN1CCOCC1)C(=O)OC2` [MYCOPHENOLATE MOFETIL], for which the IC50 entry is on record as “Not Active”.

For `C[C@]12Cc3c[nH]nc3C[C@@H]1CC[C@@H]1[C@@H]2CC[C@@]2(C)[C@H]1CC[C@]2(C)O` [STANOZOLOL], the IC50 result is on record as “Not Active”.

The target in a further experiment is Nitric oxide synthase 1 (Rattus norvegicus, UniProt P29476). In kind it is tissue-based, Cerebellum. Note: in other assays of this panel Not Active means under 50% inhibition at 10 µM.
Sequence of Nitric oxide synthase 1 (P29476 whole entry): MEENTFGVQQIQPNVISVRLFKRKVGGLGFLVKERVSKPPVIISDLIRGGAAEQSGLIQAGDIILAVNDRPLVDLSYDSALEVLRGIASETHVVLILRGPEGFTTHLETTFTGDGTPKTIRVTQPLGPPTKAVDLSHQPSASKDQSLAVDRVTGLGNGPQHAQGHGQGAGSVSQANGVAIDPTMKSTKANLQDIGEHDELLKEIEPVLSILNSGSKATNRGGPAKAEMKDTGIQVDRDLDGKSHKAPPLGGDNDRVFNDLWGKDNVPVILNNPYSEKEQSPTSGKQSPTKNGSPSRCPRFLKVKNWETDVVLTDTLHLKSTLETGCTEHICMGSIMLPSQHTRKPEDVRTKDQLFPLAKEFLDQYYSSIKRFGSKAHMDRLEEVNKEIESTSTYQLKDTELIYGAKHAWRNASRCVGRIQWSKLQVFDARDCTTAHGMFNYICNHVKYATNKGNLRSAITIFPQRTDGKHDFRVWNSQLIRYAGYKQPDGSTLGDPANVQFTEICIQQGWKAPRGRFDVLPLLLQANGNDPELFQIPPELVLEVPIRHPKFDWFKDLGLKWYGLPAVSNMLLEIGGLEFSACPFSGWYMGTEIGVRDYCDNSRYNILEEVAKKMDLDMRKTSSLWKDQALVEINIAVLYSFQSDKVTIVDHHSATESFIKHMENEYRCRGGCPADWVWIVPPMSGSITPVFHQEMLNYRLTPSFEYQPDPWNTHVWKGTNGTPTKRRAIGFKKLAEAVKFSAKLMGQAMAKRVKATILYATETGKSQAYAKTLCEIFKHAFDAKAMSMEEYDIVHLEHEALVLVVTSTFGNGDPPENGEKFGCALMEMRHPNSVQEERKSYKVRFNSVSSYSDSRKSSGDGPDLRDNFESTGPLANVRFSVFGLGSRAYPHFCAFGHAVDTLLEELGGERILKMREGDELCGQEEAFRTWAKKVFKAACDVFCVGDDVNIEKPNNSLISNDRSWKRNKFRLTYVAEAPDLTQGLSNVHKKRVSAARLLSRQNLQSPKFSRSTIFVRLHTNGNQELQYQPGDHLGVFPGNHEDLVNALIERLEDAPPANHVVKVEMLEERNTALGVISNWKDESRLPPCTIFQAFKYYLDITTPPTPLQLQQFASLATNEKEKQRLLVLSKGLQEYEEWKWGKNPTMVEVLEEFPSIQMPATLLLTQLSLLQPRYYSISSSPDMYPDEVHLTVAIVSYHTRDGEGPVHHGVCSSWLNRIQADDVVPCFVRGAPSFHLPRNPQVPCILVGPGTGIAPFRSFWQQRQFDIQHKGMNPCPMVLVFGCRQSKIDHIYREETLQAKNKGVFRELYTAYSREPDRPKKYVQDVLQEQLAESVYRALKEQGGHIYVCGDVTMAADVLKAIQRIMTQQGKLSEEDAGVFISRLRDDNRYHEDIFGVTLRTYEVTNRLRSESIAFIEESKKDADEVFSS
Conditions: not given
Consider `COc1c(C)c2c(c(O)c1C/C=C(\C)CCC(=O)OCCN1CCOCC1)C(=O)OC2` [MYCOPHENOLATE MOFETIL], for which the IC50 result is “Not Active”.

For the compound `C[C@]12Cc3c[nH]nc3C[C@@H]1CC[C@@H]1[C@@H]2CC[C@@]2(C)[C@H]1CC[C@]2(C)O` [STANOZOLOL], the IC50 entry is given as “Not Active”.

Tested on in a further experiment: not listed separately
The experiment in a line: DRUGMATRIX: GABAA, Chloride Channel, TBOB radioligand binding (ligand: [3H] TBOB). Type of experiment: cell membranes, Rattus norvegicus, Wistar, Cerebral cortex, Membrane. As to conditions: Not Active = under 50% inhibition at 10 µM.
As for `COc1c(C)c2c(c(O)c1C/C=C(\C)CCC(=O)OCCN1CCOCC1)C(=O)OC2` [MYCOPHENOLATE MOFETIL], the IC50 entry is listed as “Not Active” and the Ki entry is listed as “Not Active”.

As for `C[C@]12Cc3c[nH]nc3C[C@@H]1CC[C@@H]1[C@@H]2CC[C@@]2(C)[C@H]1CC[C@]2(C)O` [STANOZOLOL], the IC50 result was “Not Active” and the Ki entry is given as “Not Active”.

For another experiment, the target named is Cannabinoid receptor 1 (Homo sapiens, UniProt P21554). Type of experiment: cell membranes, Membrane. As to conditions: chem-1. Note: in other assays of this panel Not Active means under 50% inhibition at 10 µM.
Sequence of Cannabinoid receptor 1 (P21554 whole entry): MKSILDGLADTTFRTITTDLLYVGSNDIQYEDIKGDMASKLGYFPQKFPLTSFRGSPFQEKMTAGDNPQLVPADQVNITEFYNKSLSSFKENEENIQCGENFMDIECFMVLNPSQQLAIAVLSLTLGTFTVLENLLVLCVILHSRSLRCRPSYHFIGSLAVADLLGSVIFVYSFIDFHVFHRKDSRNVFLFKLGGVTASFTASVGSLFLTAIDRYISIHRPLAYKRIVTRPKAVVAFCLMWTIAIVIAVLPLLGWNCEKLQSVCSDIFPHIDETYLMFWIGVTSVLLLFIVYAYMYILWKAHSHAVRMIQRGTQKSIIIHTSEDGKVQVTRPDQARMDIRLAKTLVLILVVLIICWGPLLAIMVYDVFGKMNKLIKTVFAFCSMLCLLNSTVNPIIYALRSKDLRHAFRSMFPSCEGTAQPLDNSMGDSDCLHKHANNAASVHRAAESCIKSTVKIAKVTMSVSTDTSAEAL
`COc1c(C)c2c(c(O)c1C/C=C(\C)CCC(=O)OCCN1CCOCC1)C(=O)OC2` [MYCOPHENOLATE MOFETIL]: the IC50 entry is listed as “Not Active”.

For the compound `C[C@]12Cc3c[nH]nc3C[C@@H]1CC[C@@H]1[C@@H]2CC[C@@]2(C)[C@H]1CC[C@]2(C)O` [STANOZOLOL], the IC50 result is reported as “Not Active”.

The target of the next experiment is Protein phosphatase 3 catalytic subunit alpha (Homo sapiens, UniProt Q08209). On the set-up: species or system Escherichia coli.
Conditions: not given
In the case of `COc1c(C)c2c(c(O)c1C/C=C(\C)CCC(=O)OCCN1CCOCC1)C(=O)OC2` [MYCOPHENOLATE MOFETIL], the IC50 entry was “Not Active”.

For the compound `C[C@]12Cc3c[nH]nc3C[C@@H]1CC[C@@H]1[C@@H]2CC[C@@]2(C)[C@H]1CC[C@]2(C)O` [STANOZOLOL], the IC50 result is given as “Not Active”.
